Experimental data as given in patent US10766903B2 (ALMAC DISCOVERY LIMITED, priority 2016, dated 2020).

Each compound was assayed against USP7 (Homo sapiens (Human), UniProt Q93009) (assay: USP7 fluorescence polarisation (FP) biochemical assay, ubiquitin-Lys-TAMRA substrate). Details: Table 4, biochemical assay; average of at least duplicate experiments; read-out: USP7 IC50.
Summary of the method: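 Full-length His6-USP7 (2.5 nM) incubated ± inhibitor (8-point dilutions, 200 to 0.1 μM before addition) in 50 mM HEPES pH 7.2, 150 mM NaCl, 0.5 mM EDTA, 5 mM DTT, 0.05% BSA, 0.05% CHAPS. Ubiquitin-Lys-TAMRA cleavage followed by FP (ex 530/em 575 nm) every 15 min for 1.5 h; normalised to no-compound control.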

Chain of USP7 (Q93009 whole entry): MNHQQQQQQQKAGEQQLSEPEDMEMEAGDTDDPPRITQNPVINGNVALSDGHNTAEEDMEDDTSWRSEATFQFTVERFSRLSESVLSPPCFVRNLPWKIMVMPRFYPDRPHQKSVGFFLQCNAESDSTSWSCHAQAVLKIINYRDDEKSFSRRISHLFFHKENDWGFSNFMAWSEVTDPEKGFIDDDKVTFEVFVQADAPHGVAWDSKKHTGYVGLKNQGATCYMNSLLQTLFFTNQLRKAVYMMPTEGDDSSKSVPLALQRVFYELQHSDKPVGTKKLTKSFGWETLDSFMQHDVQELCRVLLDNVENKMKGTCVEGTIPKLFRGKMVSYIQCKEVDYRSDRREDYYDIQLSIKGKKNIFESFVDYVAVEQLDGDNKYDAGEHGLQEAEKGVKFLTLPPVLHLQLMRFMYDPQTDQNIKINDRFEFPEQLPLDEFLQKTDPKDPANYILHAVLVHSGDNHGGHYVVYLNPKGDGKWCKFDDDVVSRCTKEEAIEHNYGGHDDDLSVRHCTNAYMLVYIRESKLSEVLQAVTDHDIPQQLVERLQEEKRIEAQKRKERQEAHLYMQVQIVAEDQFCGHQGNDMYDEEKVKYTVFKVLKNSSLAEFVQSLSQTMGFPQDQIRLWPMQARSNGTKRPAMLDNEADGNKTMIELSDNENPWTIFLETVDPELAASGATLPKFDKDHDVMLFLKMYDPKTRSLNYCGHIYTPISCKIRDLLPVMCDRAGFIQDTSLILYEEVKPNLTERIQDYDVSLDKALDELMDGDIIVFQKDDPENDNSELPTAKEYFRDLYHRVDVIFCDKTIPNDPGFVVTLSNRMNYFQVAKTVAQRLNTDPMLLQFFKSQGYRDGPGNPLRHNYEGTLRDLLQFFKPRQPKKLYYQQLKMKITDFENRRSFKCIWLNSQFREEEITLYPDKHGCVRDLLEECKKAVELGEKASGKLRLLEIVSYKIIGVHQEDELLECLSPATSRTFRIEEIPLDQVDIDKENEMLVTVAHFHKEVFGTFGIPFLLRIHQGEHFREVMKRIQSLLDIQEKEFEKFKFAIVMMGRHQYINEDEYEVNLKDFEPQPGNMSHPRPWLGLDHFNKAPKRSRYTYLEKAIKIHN

Row | SMILES | IC50
1 | C[C@H](CC(=O)N1CCC(O)(Cn2cnc(N(CCO)Cc3cccnc3)cc2=O)CC1)c1ccccc1 [Example 177, (R)-3-((4-hydroxy-1-(3-phenylbutanoyl)piperidin-4-yl)methyl)-6-((2-hydroxyethyl)(pyridin-3-ylmethyl)amino)pyrimidin-4(3H)-one] | 1000 to 200000 nM
2 | C[C@H](CC(=O)N1CCC(O)(Cn2cnc3c(-c4ccc(C5(N)CCC5)cc4)n(C)nc3c2=O)CC1)c1ccccc1 [Example 182, (R)-3-(4-(1-Aminocyclobutyl)phenyl)-6-((4-hydroxy-1-(3-phenylbutanoyl)piperidin-4-yl)methyl)-2-methyl-2H-pyrazolo[4,3-d]pyrimidin-7(6H)-one] | < 250 nM
3 | O=C(CCC1CCC1)N1CCC(O)(Cn2cnc(NCCN3CCCC3)cc2=O)CC1 [Example 183, 3-((1-(3-Cyclobutylpropanoyl)-4-hydroxypiperidin-4-yl)methyl)-6-((2-(pyrrolidin-1-yl)ethyl)amino)pyrimidin-4(3H)-one] | 1000 to 200000 nM
4 | O=C(C(C1CCC1)C1CCC1)N1CCC(O)(Cn2cnc(NCCN3CCCC3)cc2=O)CC1 [Example 184, 3-((1-(2,2-Dicyclobutylacetyl)-4-hydroxypiperidin-4-yl)methyl)-6-((2-(pyrrolidin-1-yl)ethyl)amino)pyrimidin-4(3H)-one] | 1000 to 200000 nM
5 | C[C@H](CC(=O)N1CCC(O)(Cn2cnc3c(nnn3-c3ccccc3)c2=O)CC1)c1ccccc1 [Example 185, (R)-6-((4-Hydroxy-1-(3-phenylbutanoyl)piperidin-4-yl)methyl)-3-phenyl-3H-[1,2,3]triazolo[4,5-d]pyrimidin-7(6H)-one] | < 250 nM
6 | O=C(CCC1CCC1)N1CCC(O)(Cn2cnc3c(nnn3-c3ccccc3)c2=O)CC1 [Example 186, 6-((1-(3-Cyclobutylpropanoyl)-4-hydroxypiperidin-4-yl)methyl)-3-phenyl-3H-[1,2,3]triazolo[4,5-d]pyrimidin-7(6H)-one] | 1000 to 200000 nM
7 | O=C(CC(C1CC1)C1CC1)N1CCC(O)(Cn2cnc3c(nnn3-c3ccccc3)c2=O)CC1 [Example 187, 6-((1-(3,3-Dicyclopropylpropanoyl)-4-hydroxypiperidin-4-yl)methyl)-3-phenyl-3H-[1,2,3]triazolo[4,5-d]pyrimidin-7(6H)-one] | 250 to 999 nM
8 | Cc1nc2c(=O)n(CC3(O)CCN(C(=O)C[C@@H](C)c4ccccc4)CC3)cnc2n1-c1ccccc1 [Example 188, (R)-1-((4-Hydroxy-1-(3-phenylbutanoyl)piperidin-4-yl)methyl)-8-methyl-9-phenyl-1H-purin-6(9H)-one] | < 250 nM
9 | Cc1nc2c(=O)n(CC3(O)CCN(C(=O)CC(C4CC4)C4CC4)CC3)cnc2n1-c1ccccc1 [Example 190, 1-((1-(3,3-Dicyclopropylpropanoyl)-4-hydroxypiperidin-4-yl)methyl)-8-methyl-9-phenyl-1H-purin-6(9H)-one] | 1000 to 200000 nM
10 | Cn1nc2c(=O)n(CC3(O)CCN(C(=O)C4(C)CC4)CC3)cnc2c1-c1ccccc1 [Example 191, 6-((4-Hydroxy-1-(1-methylcyclopropanecarbonyl)piperidin-4-yl)methyl)-2-methyl-3-phenyl-2H-pyrazolo[4,3-d]pyrimidin-7(6H)-one] | 1000 to 200000 nM
11 | Cn1nc2c(=O)n(CC3(O)CCN(C(=O)c4cnco4)CC3)cnc2c1-c1ccccc1 [Example 192, 6-((4-Hydroxy-1-(oxazole-5-carbonyl)piperidin-4-yl)methyl)-2-methyl-3-phenyl-2H-pyrazolo[4,3-d]pyrimidin-7(6H)-one] | 1000 to 200000 nM
12 | Cn1nc2c(=O)n(CC3(O)CCN(C(=O)CC(C4CC4)C4CC4)CC3)cnc2c1-c1ccccc1 [Example 193, 6-((1-(3,3-Dicyclopropylpropanoyl)-4-hydroxypiperidin-4-yl)methyl)-2-methyl-3-phenyl-2H-pyrazolo[4,3-d]pyrimidin-7(6H)-one] | 250 to 999 nM
13 | CCOC(=O)NCc1ccc(-c2c3ncn(CC4(O)CCN(C(=O)C[C@@H](C)c5ccccc5)CC4)c(=O)c3nn2C)cc1 [Example 194, (R)-Ethyl 4-(6-((4-hydroxy-1-(3-phenylbutanoyl)piperidin-4-yl)methyl)-2-methyl-7-oxo-6,7-dihydro-2H-pyrazolo[4,3-d]pyrimidin-3-yl)benzylcarbamate] | < 250 nM
14 | Cc1nc2c(=O)n(CC3(O)CCN(C(=O)c4cnc(C5CC5)o4)CC3)cnc2n1-c1ccccc1 [Example 195, 1-((1-(2-Cyclopropyloxazole-5-carbonyl)-4-hydroxypiperidin-4-yl)methyl)-8-methyl-9-phenyl-1H-purin-6(9H)-one] | 1000 to 200000 nM
15 | Cn1nc2c(=O)n(CC3(O)CCN(C(=O)c4cnc(C5CC5)o4)CC3)cnc2c1-c1ccccc1 [Example 196, 6-((1-(2-Cyclopropyloxazole-5-carbonyl)-4-hydroxypiperidin-4-yl)methyl)-2-methyl-3-phenyl-2H-pyrazolo[4,3-d]pyrimidin-7(6H)-one] | 1000 to 200000 nM
16 | CC1(C(=O)N2CCC(O)(Cn3cnc4c(nnn4-c4ccccc4)c3=O)CC2)CC1 [Example 197, 6-((4-Hydroxy-1-(1-methylcyclopropanecarbonyl)piperidin-4-yl)methyl)-3-phenyl-3H-[1,2,3]triazolo[4,5-d]pyrimidin-7(6H)-one] | 1000 to 200000 nM
17 | O=C(c1cnc(C2CC2)o1)N1CCC(O)(Cn2cnc3c(nnn3-c3ccccc3)c2=O)CC1 [Example 198, 6-((1-(2-Cyclopropyloxazole-5-carbonyl)-4-hydroxypiperidin-4-yl)methyl)-3-phenyl-3H-[1,2,3]triazolo[4,5-d]pyrimidin-7(6H)-one] | 1000 to 200000 nM
18 | CC1(C(=O)N2CCC(O)(Cn3cnc4[nH]c(Cl)cc4c3=O)CC2)CC1 [Example 199, 6-Chloro-3-((4-hydroxy-1-(1-methylcyclopropanecarbonyl)piperidin-4-yl)methyl)-3H-pyrrolo[2,3d]pyrimidin-4(7H)-one] | 1000 to 200000 nM
19 | CC1(C(=O)N2CCC(O)(Cn3cnc4c(cc(Cl)n4-c4csc(CO)c4)c3=O)CC2)CC1 [Example 201, 6-Chloro-3-((4-hydroxy-1-(1-methylcyclopropanecarbonyl)piperidin-4-yl)methyl)-7-(5-(hydroxymethyl)thiophen-3-yl)-3H-pyrrolo[2,3-d]pyrimidin-4(7H)-one] | < 250 nM
20 | CC1(C(=O)N2CCC(O)(Cn3cnc4c(cc(Cl)n4-c4ccc(F)cc4)c3=O)CC2)CC1 [Example 204, 6-Chloro-7-(4-fluorophenyl)-3-((4-hydroxy-1-(1-methylcyclopropanecarbonyl)piperidin-4-yl)methyl)-3H-pyrrolo[2,3-d]pyrimidin-4(7H)-one] | < 250 nM
21 | O=C(c1cnc(C2CC2)o1)N1CCC(O)(Cn2cnc3c(cc(Cl)n3-c3ccc(F)cc3)c2=O)CC1 [Example 205, 6-Chloro-3-((1-(2-cyclopropyloxazole-5-carbonyl)-4-hydroxypiperidin-4-yl)methyl)-7-(4-fluorophenyl)-3H-pyrrolo[2,3-d]pyrimidin-4(7H)-one] | < 250 nM
22 | COc1cc(-n2c(Cl)cc3c(=O)n(CC4(O)CCN(C(=O)c5cnc(C6CC6)o5)CC4)cnc32)ccc1F [Example 206, 6-Chloro-3-((1-(2-cyclopropyloxazole-5-carbonyl)-4-hydroxypiperidin-4-yl)methyl)-7-(4-fluoro-3-methoxyphenyl)-3H-pyrrolo[2,3-d]pyrimidin-4(7H)-one] | < 250 nM
23 | COc1cc(-n2c(Cl)cc3c(=O)n(CC4(O)CCN(C(=O)C5(C)CC5)CC4)cnc32)ccc1F [Example 207, 6-Chloro-7-(4-fluoro-3-methoxyphenyl)-3-((4-hydroxy-1-(1-methylcyclopropanecarbonyl)piperidin-4-yl)methyl)-3H-pyrrolo[2,3-d]pyrimidin-4(7H)-one] | 250 to 999 nM
24 | Cn1nccc1-c1cccc(-n2c(Cl)cc3c(=O)n(CC4(O)CCN(C(=O)C5(C)CC5)CC4)cnc32)c1 [Example 208, 6-Chloro-3-((4-hydroxy-1-(1-methylcyclopropanecarbonyl)piperidin-4-yl)methyl)-7-(3-(1-methyl-1H-pyrazol-5-yl)phenyl)-3H-pyrrolo[2,3-d]pyrimidin-4(7H)-one] | 250 to 999 nM
25 | Cn1c(Cl)cc2c(=O)n(CC3(O)CCN(C(=O)C4(C)CC4)CC3)cnc21 [Example 209, 6-Chloro-3-((4-hydroxy-1-(1-methylcyclopropanecarbonyl)piperidin-4-yl)methyl)-7-methyl-3H-pyrrolo[2,3-d]pyrimidin-4(7H)-one] | 1000 to 200000 nM

Same assay, conditions: USP7 IC50, Table 4, biochemical assay; average of at least duplicate experiments

Row | SMILES | IC50
26 | C[C@H](CC(=O)N1CCC(O)(Cn2cnc(N3CC4(CCOC4)C3)cc2=O)CC1)c1ccccc1 [Example 176, (R)-3-((4-hydroxy-1-(3-phenylbutanoyl)piperidin-4-yl)methyl)-6-(6-oxa-2-azaspiro[3.4]octan-2-yl)pyrimidin-4(3H)-one] | 250 to 999 nM
27 | C[C@H](CC(=O)N1CCC(O)(Cn2cnc(N3CC4(CCCN4C)C3)cc2=O)CC1)c1ccccc1 [Example 178, (R)-3-((4-hydroxy-1-(3-phenylbutanoyl)piperidin-4-yl)methyl)-6-(5-methyl-2,5-diazaspiro[3.4]octan-2-yl)pyrimidin-4(3H)-one] | 250 to 999 nM
28 | C[C@H](CC(=O)N1CCC(O)(Cn2cnc(N3CCC4(COC4)C3)cc2=O)CC1)c1ccccc1 [Example 179, (R)-3-((4-hydroxy-1-(3-phenylbutanoyl)piperidin-4-yl)methyl)-6-(2-oxa-6-azaspiro[3.4]octan-6-yl)pyrimidin-4(3H)-one] | 250 to 999 nM
29 | Cc1nc2c(=O)n(CC3(O)CCN(C(=O)C[C@H](c4ccccc4)C(F)(F)F)CC3)cnc2n1-c1ccccc1 [Example 189, (R)-1-((4-Hydroxy-1-(4,4,4-trifluoro-3-phenylbutanoyl)piperidin-4-yl)methyl)-8-methyl-9-phenyl-1H-purin-6(9H)-one] | 250 to 999 nM
